What was measured:
[1] = test system: MDA-MB-231 cells; assay: Inverted invasion assay through matrigel towards EGF; conditions: nuclei of invading cells above 40 μm
[2] = test system: LM2 cells; assay: Extravasation (experimental lung) metastasis assay, tail vein injection; assay type: in vivo, mice; conditions: LM2 cells stably expressing shRNA injected via tail vein, 28 days; vs Ctrl-shRNA
Protocol: For the experimental lung metastasis assay, 5×10^4 cells in 100 μl of Hank's Balanced Salt Solution were injected into the lateral tail vein of 6- to 8-week-old female NOD/SCID/IL2RV-null mice. The mice were sacrificed 28 days post-injection and lungs were inflated with 3.8% formaldehyde imaged with a fluorescence microscope and subsequently fixed overnight with 3.8% formaldehyde. ZsGreen-positive foci were counted in the left pulmonary lobe using ImageJ and counts were manually curated as needed.

CNC(=O)[C@H](Cc1c[nH]c2ccccc12)NC(=O)[C@@H](CC(=O)NO)CC(C)C [MMP inhibitor, GM6001]
invasion of Lpd overexpressing cells ([1]; MDA-MB-231 expressing GFP-Lpd, 10 μM GM6001 vs DMSO): reduced invasion
invasion of GFP expressing control cells ([1]; MDA-MB-231 expressing GFP, 10 μM GM6001 vs DMSO): reduced invasion

Cc1ccc(NC(=O)c2ccc(CN3CCN(C)CC3)cc2)cc1Nc1nccc(-c2cccnc2)n1 [ST1571, STI-571]
breast cancer cell invasiveness towards EGF ([1]; MDA-MB-231, Dasatinib 10 nM, STI571 10 μM, 72 hours vs DMSO): impaired

Lpd-shRNA2: shRNA targeting human Lpd, TTCCCATACTTTGCAATGCGG
number of ZsGreen-positive metastatic foci in the left pulmonary lobe [2]: not significant

Source: patent US10443054B2, “Methods for identifying and treating invasive/metastatic breast cancers” (Massachusetts Institute of Technology, priority 2016, dated 2019)
